The text below walks through data of paper PMC5342591, “Development of a selected reaction monitoring mass spectrometry-based assay to detect asparaginyl endopeptidase activity in biological fluids” (Oncotarget, 2016).

Square brackets hold non-standard residues; d marks the D form. Peptide text beside a SMILES is read from it.

Data set [1] concerns the target T1, recombinant human AEP (rAEP) (Homo sapiens, UniProt Q99538).
T1 construct: 7xHis (N); purchased R & D Systems, Abingdon, UK; host or cells: NS0 murine myeloma cell line
T1 sequence (Q99538 18-323 limits assumed): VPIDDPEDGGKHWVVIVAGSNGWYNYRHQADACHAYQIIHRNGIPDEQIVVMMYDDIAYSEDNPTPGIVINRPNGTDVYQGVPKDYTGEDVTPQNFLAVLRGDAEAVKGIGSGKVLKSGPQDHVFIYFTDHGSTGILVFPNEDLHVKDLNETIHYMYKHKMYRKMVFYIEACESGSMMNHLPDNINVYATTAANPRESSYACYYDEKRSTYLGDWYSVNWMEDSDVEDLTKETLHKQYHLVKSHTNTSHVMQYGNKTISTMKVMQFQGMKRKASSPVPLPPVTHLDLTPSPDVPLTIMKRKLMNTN
As to the kind of experiment: Michaelis-Menten / Lineweaver-Burk kinetics of rAEP with synthetic substrate, product measured by SRM-MS. In kind it is biochemical. Conditions: 16 hr incubation at 37°C; 10 ng rAEP; substrate 0.02 mM to 1.3 mM; Lineweaver-Burk plot; SRM-MS peak area of product; n = 3. The protocol:
Figure 3 Development of Assay Conditions to Monitor AEP Activity in Plasma A. The level of hydrolysis of AEP substrate with respect to time. 2.44 ng/μl and 9.1 ng/μl of rAEP were spiked into a background of pH modified plasma (pH 5.8) and assayed by SRM-MS for the product peptide. Error bars shown are +/−SD (n = 3). B-C. Rate of AEP activity assayed with different concentrations of substrate (hpvFAANDVSKvph) ranging from 0.02 mM to 1.3 mM. Area under the curve, drawn from SRM-MS of the product peptide, was used to obtain the rate of reaction for AEP activity as shown in Michaelis-Menten Curve (B). […] D. The linearity and limit-of-detection of the AEP assay was investigated by measuring the amount of hydrolysis by 2.0 pg to 0.25 ng of rAEP spiked into 25 μl of plasma and product measured by SRM-MS of Error bars shown are +/−SEM (n = 3). The assay was repeated three times and a technical variance of 3-28% was calculated.
To optimise substrate concentration in our assay, 10 ng of rAEP was incubated with 0.02 mM to 1.3 mM of synthetic substrate for 1 hr, 4 hr (Supplementary Figure S2) or 16 hr (Figure 3B and 3C) at 37°C. The rate of reaction was determined from the amount of product formed per hour and used for Michaelis-Menten enzyme kinetic analysis (Figure 3B). […]
All samples were analysed on a 6500 Q-TRAP (AB Sciex, Warrington, UK) coupled to a nano Acquity uPLC (Waters Inc, MA, US). […]

A short description of data set [2]: Stability of cleaved substrate in plasma, SRM-MS. In kind it is in vitro ADME. Conditions: human plasma 25 μl diluted fivefold in assay buffer pH 5.8, 1 pmole to 1 amole spiked, ACN precipitation, n = 3. The protocol:
Figure 2 Detection of Cleaved Substrate Peptide by Mass Spectrometry A-B. 10 ng of recombinant AEP (rAEP) was incubated with 1 μg (0.65 mM) synthetic substrate peptide (hpvFAANDVSKvph) overnight at 37°C. Samples were dried down by vacuum centrifuge and resuspended in LB. 5 pmole of the substrate was loaded on to the liquid chromatography column and cleaved substrate was analysed by SRM MS (A) followed by an DDA workflow (B). (A) Three SRM transitions (b4-481.25^+, b5-552.29^+, b6-623.33^+) were used to detect the cleaved substrate, sequenced as hpvFAAN (378.2^2+ precursor ion). The target peptide eluted at 32 min during the chromatographic gradient. (B) Product ion scans of precursor 378.2^2+ as analysed by DDA. C. […] Samples were resuspended in LB and analyzed by SRM MS. […]
For an assay to measure enzyme activity it is important that the product is stable for the duration of the assay and is present at a level that can be detected. The limit of detection (LOD) and stability of the product hpvFAAN were analysed by serial dilution down to 1 amole in the presence or absence of plasma using SRM MS analysis. This allowed the LOD to be calculated as 2 amole with a linear response up to 1 pmole without a plasma background (Figure 2C). […]

The Km is the concentration of substrate that gives half-maximal velocity. `CC(C)[C@H](NC(=O)[C@H](CC(=O)O)NC(=O)[C@H](CC(N)=O)NC(=O)[C@H](C)NC(=O)[C@H](C)NC(=O)[C@H](Cc1ccccc1)NC(=O)[C@H](NC(=O)[C@H]1CCCN1C(=O)[C@H](N)Cc1c[nH]cn1)C(C)C)C(=O)N[C@@H](CO)C(=O)N[C@@H](CCCCN)C(=O)N[C@@H](C(=O)N1CCC[C@@H]1C(=O)N[C@H](Cc1c[nH]cn1)C(=O)O)C(C)C` [hpvFAANDVSKvph] (H-[dH][dP][dV]FAANDVSK[dV][dP][dH]-OH): the Km in data set [1] was found to be 400 µM. Consider `CC(C)[C@@H](NC(=O)[C@H]1CCCN1C(=O)[C@H](N)Cc1c[nH]cn1)C(=O)N[C@@H](Cc1ccccc1)C(=O)N[C@@H](C)C(=O)N[C@@H](C)C(=O)N[C@@H](CC(N)=O)C(=O)O` [hpvFAAN] (H-[dH][dP][dV]FAAN-OH), for which, in data set [2], the “Stability of the product in plasma” value is “stable”.
